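1) Cells in 96-well plates. 2) Compound, 48 h, 5 concentrations. 3) Linear interpolation between surrounding doses. 4) Unreached endpoint = highest concentration. GI50 is the concentration that inhibits growth by half. At the TGI there is no net growth.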
Tests used:
Test in all cases: DTP human tumour cell line panel, 48 h
COLO 205 colon = tested on: COLO 205 colon
TK-10 renal = tested on: TK-10 renal
SK-MEL-28 melanoma = tested on: SK-MEL-28 melanoma
KM12 colon = tested on: KM12 colon
IGROV1 ovarian = tested on: IGROV1 ovarian
OVCAR-5 ovarian = tested on: OVCAR-5 ovarian
RXF 393 renal = tested on: RXF 393 renal
SK-MEL-2 melanoma = tested on: SK-MEL-2 melanoma
UO-31 renal = tested on: UO-31 renal
EKVX NSCLC = tested on: EKVX NSCLC

## COC(=O)/C=C/c1cc2c(cc1-c1c(C(=O)O)cc(OC)c(OC)c1OC)OCO2
COLO 205 colon
  TGI: > 10 µM
TK-10 renal
  TGI: > 10 µM
SK-MEL-28 melanoma
  TGI: > 10 µM
KM12 colon
  TGI: > 10 µM
IGROV1 ovarian
  TGI: > 10 µM

## C[N+]1=C(/C=C\C=C\c2ccccc2)C(C)(C)c2ccccc21
OVCAR-5 ovarian
  GI50: 3.88 µM
  TGI: 13.3 µM
COLO 205 colon
  GI50: 0.686 µM
  TGI: 2.26 µM
RXF 393 renal
  GI50: 1.75 µM
  TGI: 3.62 µM
TK-10 renal
  GI50: 4.47 µM
  TGI: 15.7 µM
SK-MEL-28 melanoma
  GI50: 1.53 µM
  TGI: 3.46 µM
SK-MEL-2 melanoma
  GI50: 1.69 µM
  TGI: 4.31 µM
KM12 colon
  GI50: 3.15 µM
  TGI: 10.8 µM
UO-31 renal
  GI50: 3.49 µM
  TGI: 15 µM
EKVX NSCLC
  GI50: 2.42 µM
  TGI: 14.4 µM
IGROV1 ovarian
  GI50: 2.06 µM
  TGI: 8.2 µM

## CCOC(=O)c1[nH]c(COC(C)=O)c2c1CCCCCCCCCC2
OVCAR-5 ovarian
  TGI: > 100 µM
COLO 205 colon
  TGI: > 100 µM
RXF 393 renal
  TGI: > 100 µM
TK-10 renal
  TGI: > 100 µM
SK-MEL-2 melanoma
  TGI: > 100 µM
KM12 colon
  TGI: > 100 µM
UO-31 renal
  TGI: > 100 µM
EKVX NSCLC
  TGI: > 100 µM
IGROV1 ovarian
  TGI: > 100 µM

## NC(N)=NS(=O)(=O)c1ccc(Nc2c3ccccc3nc3c(C(=O)Nc4ccc(S(N)(=O)=O)cc4)cccc23)cc1
OVCAR-5 ovarian
  TGI: > 100 µM
COLO 205 colon
  TGI: > 100 µM
RXF 393 renal
  TGI: > 100 µM
TK-10 renal
  TGI: > 100 µM
SK-MEL-28 melanoma
  TGI: > 100 µM
SK-MEL-2 melanoma
  TGI: > 100 µM
KM12 colon
  TGI: > 100 µM
UO-31 renal
  TGI: > 100 µM
EKVX NSCLC
  TGI: > 100 µM
IGROV1 ovarian
  TGI: > 100 µM

## CCN1CCN(CC(=O)N2c3cccc4cccc(c34)N(C(=O)CN3CCN(CC)CC3)C2c2cn(-c3ccccc3)nc2-c2cccc([N+](=O)[O-])c2)CC1
OVCAR-5 ovarian
  GI50: 1.8 µM
  TGI: 3.45 µM
COLO 205 colon
  GI50: 1.72 µM
  TGI: 3.39 µM
RXF 393 renal
  GI50: 1.62 µM
  TGI: 3.09 µM
TK-10 renal
  GI50: 1.88 µM
  TGI: 3.69 µM
SK-MEL-28 melanoma
  GI50: 1.75 µM
  TGI: 3.2 µM
SK-MEL-2 melanoma
  GI50: 1.84 µM
  TGI: 3.58 µM
KM12 colon
  GI50: 1.72 µM
  TGI: 3.28 µM
UO-31 renal
  GI50: 1.34 µM
  TGI: 2.73 µM
EKVX NSCLC
  GI50: 1.79 µM
  TGI: 3.79 µM
IGROV1 ovarian
  GI50: 1.62 µM
  TGI: 3.28 µM

## O=Cc1c(O)c(C(=O)Nc2ccc3[nH]c(=O)[nH]c3c2)cc2ccccc12
OVCAR-5 ovarian
  TGI: > 100 µM
COLO 205 colon
  TGI: > 100 µM
RXF 393 renal
  TGI: > 100 µM
TK-10 renal
  TGI: > 100 µM
SK-MEL-28 melanoma
  TGI: > 100 µM
SK-MEL-2 melanoma
  TGI: > 100 µM
KM12 colon
  TGI: > 100 µM
UO-31 renal
  TGI: > 100 µM
EKVX NSCLC
  TGI: > 100 µM
IGROV1 ovarian
  TGI: > 100 µM

## CC1(C)C2C=CC1C(=O)CC2 (configuration not stated)
OVCAR-5 ovarian
  TGI: > 100 µM
RXF 393 renal
  TGI: > 100 µM
TK-10 renal
  TGI: > 100 µM
SK-MEL-28 melanoma
  TGI: > 100 µM
SK-MEL-2 melanoma
  TGI: > 100 µM
KM12 colon
  TGI: > 100 µM
UO-31 renal
  TGI: > 100 µM
EKVX NSCLC
  TGI: > 100 µM

## Cc1cc(N2CCOCC2)cc2[nH]c(-c3c(NC[C@@H](O)c4cccc(Cl)c4)cc[nH]c3=O)nc12
OVCAR-5 ovarian
  GI50: 0.673 µM
  TGI: 9.66 µM
COLO 205 colon
  GI50: 0.118 µM
  TGI: 0.642 µM
RXF 393 renal
  GI50: 0.567 µM
  TGI: 2.11 µM
TK-10 renal
  GI50: 1.55 µM
  TGI: 4.4 µM
SK-MEL-28 melanoma
  GI50: 2.15 µM
  TGI: 13.5 µM
SK-MEL-2 melanoma
  GI50: 1.98 µM
  TGI: 5.98 µM
KM12 colon
  GI50: 0.0161 µM
  TGI: 4.46 µM
UO-31 renal
  GI50: 0.275 µM
  TGI: 2.98 µM
EKVX NSCLC
  GI50: 1.62 µM
  TGI: 29.1 µM
IGROV1 ovarian
  GI50: 0.912 µM
  TGI: 5.28 µM

## O=C(O)C1CC(O)CN1 (configuration not stated)
OVCAR-5 ovarian
  TGI: > 100 µM
COLO 205 colon
  TGI: > 100 µM
RXF 393 renal
  TGI: > 100 µM
TK-10 renal
  TGI: > 100 µM
SK-MEL-28 melanoma
  TGI: > 100 µM
SK-MEL-2 melanoma
  TGI: > 100 µM
KM12 colon
  TGI: > 100 µM
UO-31 renal
  TGI: > 100 µM
EKVX NSCLC
  TGI: > 100 µM
IGROV1 ovarian
  TGI: > 100 µM
